Source: US20240415791A1, “Therapeutic methods and compositions for treating cancer using devimistat and a fatty acid oxidation inhibitor, a tyrosine kinase inhibitor, a glutaminase inhibitor, and/or a glycolysis inhibitor” (Cornerstone Pharmaceuticals, Inc., priority 2021, published 2024)
Read-outs that look alike come from different tables or passages of the source.

What was measured:
AsPC1 cells [1] = assay: Acute ATP synthesis rescue by exogenous carbon sources in AsPC1 cells treated with devimistat and GPi; format: cell-based, human; settings: for inhibition of oleic acid (OA)-driven acute ATP synthesis / OA rescue / OA rescue blockade: 50 μM oleic acid; for OA rescue blockade: acute ATP synthesis, 50 μM GPi
AsPC1 cells [2] = assay: Devimistat-induced cell death (ATP after recovery) in AsPC1 cells; format: cell-based, human; settings: for sensitization to devimistat-induced cell death, agent combined with devimistat: AsPC1, nutrient-free CBS2, treatment followed by recovery in serum-free RPMI; for Devimistat synergy: devimistat-induced cell death, no exogenous carbon, 15 hours treatment then recovery
Method: Cells were plated at 80% confluency in complete RPMI in black, clear bottom 96-well plates or 35-mm dishes for ATP, protein and glycogen analysis, or glass coverslips for fluorescence visualization. […] Prior to drug treatment, cells were incubated in a nutrient-free carbonate buffered salt solution (CBS2) for 3 hours. Drug treatments were then carried out in CBS2 with addition of nutrient sources and/or chemical agents as described in the Examples and Figures.
(§1) LOGIC: High throughput, plate reader assays for cell death essentially always ultimately depend on metabolic activity of cells to identify viability, directly or indirectly. Thus, strong inhibition of metabolic activity by anti-metabolism agents like those described herein can confound cell death analysis by such assays. […] The inventors thus used a recovery-based assay wherein cells are treated with anti-metabolic agents under conditions where mitochondrial metabolism is (or becomes) limiting on viability. After experimental treatment, drug and media are removed and cells are allowed to recover in serum-free RPMI. RPMI provides high levels of glucose in support of glycolytic ATP generation (independently of mitochondrial function), allowing viable cells to recover ATP levels that are ultimately measured in the plate assay to score cell viability.
Survival is assessed by conventional luminescence measurement of ATP levels after this recovery.
TECHNICAL DETAILS: Immediately after drug treatments, acute ATP levels of cells in black, clear bottom 96-well plates were measured using the CellTiter-Glo® Luminescent Cell Viability Assay (catalog #G775B) following Promega (Madison, WI) protocols. […] After this recovery period ATP levels were measured using the CellTiter-Glo® Luminescent Cell Viability Assay as described above.
Survival is assessed by conventional luminescence measurement of ATP levels after this recovery. See the Methods section above for a detailed description of this assay and its validation.

AsPC1 cells [3] = assay: Glycogen content in AsPC1 cells; format: cell-based, human; settings: AsPC1, CBS2, 3 hours
Method: (§2) Glycogen was quantified using the Glycogen Assay Kit II (colorimetric) from AbCam (ab169558) according to manufacturer's instructions. Briefly, approximately 2×10^6 cells were washed with ice-cold PBS and collected via scraping in 300 μL ice-cold ddH2O. Cells were immediately sonicated on ice for 5× […] pulses with a probe sonicator (Misonix Inc, model XL2000), then heated to 80° C. for 10 min. Samples were stored O/N at −20° C., then thawed, centrifuged at 12,000×g for 10 min and the supernatants collected for glycogen hydrolysis and quantification according to manufacturer's instructions.
C. […] Cells were treated in CBS2 for 3 hours with 30 μM devimistat or mock treated (FIG. 2C, left), or treated for 3 hours with the indicated devimistat doses (FIG. 2C, right).
(§3) D. Effects of anti-metabolism agents on glycogen consumption in PANC1 and AsPC1 cells. […] Glycogen content was measured in cell lysates (see Methods, above) and the results are presented in the left and middle graphs in FIG. 3D (note the different vertical scales for PANC1 and AsPC1 plots).

PANC1 cells [4] = assay: Devimistat-induced cell death (ATP after recovery) in PANC1 cells; format: cell-based, human; settings: PANC1, nutrient-free CBS2, treatment followed by recovery in serum-free RPMI
Method: Cells were plated at 80% confluency in complete RPMI in black, clear bottom 96-well plates or 35-mm dishes for ATP, protein and glycogen analysis, or glass coverslips for fluorescence visualization. To create low nutritional conditions, cells were seeded in complete media, after 24 hours cells were transferred to serum free RPMI for 18-24 hours. Prior to drug treatment, cells were incubated in a nutrient-free carbonate buffered salt solution (CBS2) for 3 hours. Drug treatments were then carried out in CBS2 with addition of nutrient sources and/or chemical agents as described in the Examples and Figures.
as §1, with “cell viability. Under these conditions, cells that are committed to execution of cell death by the experimental treatment score as dead and cells that have not committed to cell death recover ATP levels and score as viable.” for “cell viability.”
Specifically, after exposure to the treatments indicated, cells are allowed to recover ([…]) in RPMI without serum. Survival is assessed by conventional luminescence measurement of ATP levels after this recovery.
TECHNICAL DETAILS: Immediately after drug treatments, acute ATP levels of cells in black, clear bottom 96-well plates were measured using the CellTiter-Glo® Luminescent Cell Viability Assay (catalog #G775B) following Promega (Madison, WI) protocols. To assess cell viability, after drug treatments, drug/agent-containing medium was replaced with serum-free RPMI and cells were incubated for an additional 17-24 hours to allow recovery of viable cells, without additional cell division. After this recovery period ATP levels were measured using the CellTiter-Glo® Luminescent Cell Viability Assay as described above.
A. Exogenous glucose protects from devimistat-induced cell death. Four different cell lines were exposed for 15 hours (PANC1, AsPC1, H460) or 8 hours (PC3) to the indicated range of devimistat doses in the absence of exogenous nutrients (in carbonate buffered balanced salts solution, CBS2) after 3 hours of preincubation in CBS2 (for cell adaptation and to equilibrate soluble nutrient pools). Cells were exposed to the treatments indicated, followed by recovery (24 hours) in RPMI without serum (providing nutrient support for viable cell recovery, without serum factors for cell division). Survival is assessed by conventional luminescence measurement of ATP levels after this recovery. […] The relatively large quantitative differences in devimistat sensitivity between cell lines under exogenous nutrient deprivation are characteristic of each line (see examples below), with small experiment-to-experiment variation. […]

AsPC1 cells [5] = assay: CO2 release from 14C-oleic acid in AsPC1 cells; format: cell-based, human; settings: AsPC1, CBS2, 50 μM GPi, 40 μM oleic acid
PANC1 cells [6] = assay: Glycogen content in PANC1 cells; format: cell-based, human; settings: PANC1, CBS2, 3 hours
Method: as §2
C. Comparison of endogenous glycogen stores and their devimistat-induced depletion in PANC1 and AsPC1 cells. Cells were treated in CBS2 for 3 hours with 30 μM devimistat or mock treated (FIG. 2C, left), or treated for 3 hours with the indicated devimistat doses (FIG. 2C, right). Glycogen quantitation is described in Methods, above. ** indicates p<0.01. **** indicates p<0.0001.
as §3

AsPC1 xenograft = AsPC1 xenograft tumor growth, crizotinib and devimistat; format: in vivo, mice; settings: crizotinib oral gavage, devimistat IP, MWF
Method: Female, 6-week-old, CD1-nu/nu mice were inoculated with 2.5 million PANC-1 cell in 100 μL of HBSS or 5 million AsPC-1 cells in HBSS. Treatment commenced when tumors reached 100 mm^3 and lasted for the times indicated in the Examples and Figures. Mice were treated three times per week (MWF) with vehicle or drugs as indicated in the Examples and Figures. Tumors were measured once per week. […] Use of Matrigel for tumor inoculation was avoided in TGI experiments with this class of agents.
D. Assessment of CRZ and/or devimistat effects on AsPC1 xenograft tumor growth in vivo. Tumors were inoculated subcutaneously on the flank and drug combinations indicated in FIG. 8C were administered intraperitoneally (devimistat) or by oral gavage (CRZ) three days per week (MWF). Tumor size was estimated by caliper assessment of tumor radius and calculation of volume (see Methods).

[7] = AsPC1, 50 μM GPi, 60 μM devimistat

SMILES	inhibition of oleic acid (OA)-driven acute ATP synthesis / OA rescue (AsPC1 cells [1]; [7])	OA rescue blockade (AsPC1 cells [1]; 60 μM devimistat)	sensitization to devimistat-induced cell death, agent combined with devimistat (AsPC1 cells [2])	glycogen consumption (AsPC1 cells [3])	other results
COc1cc2c(Oc3ccc(NC(=O)C4(C(=O)Nc5ccc(F)cc5)CC4)cc3F)ccnc2cc1OCCCN1CCOCC1 [Foretinib, N1′-[3-fluoro-4-[[6-methoxy-7-(3-morpholinopropoxy)-4-quinolyl]oxy]phenyl]-N1-(4-fluorophenyl)cyclopropane-1,1-dicarboxamide]	robust inhibition	Yes	robustly sensitize	–	Devimistat synergy (AsPC1 cells [2]): Yes
Oc1c(Cl)cc(Cl)c(Cl)c1Cc1c(O)c(Cl)cc(Cl)c1Cl [hexachlorophene]	–	–	–	–	blockade of glutamine rescue from devimistat inhibition of ATP synthesis (AsPC1 cells [1]): blockade
C=C(C)[C@H]1Cc2c(ccc3c2O[C@@H]2COc4cc(OC)c(OC)cc4[C@@H]2C3=O)O1 [rotenone]	–	–	–	induce accelerated glycogen depletion	–
O=C(Cc1cccc(OC(F)(F)F)c1)Nc1ccc(CCCCc2nnc(NC(=O)Cc3ccccn3)s2)nn1 [CB-839, 2-(pyridin-2-yl)-N-(5-(4-(6-(2-(3-(trifluoromethoxy)phenyl)acetamido)pyridazin-3-yl)butyl)-1,3,4-thiadiazol-2-yl)acetamide]	–	–	modest effects on devimistat sensitivity	–	blockade of glutamine rescue from devimistat inhibition of ATP synthesis (AsPC1 cells [1]; AsPC1, 50 μM GPi, 60 μM devimistat, 2 mM glutamine, CB-839 0.2 μM, hexachlorophene 3 μM, 4.5 hours): blockade; sensitization to devimistat-induced cell death, agent combined with devimistat (PANC1 cells [4]): modest effects on devimistat sensitivity
CCOC(=O)[C@@]1(CCCCCCOc2ccc(Cl)cc2)CO1 [ETX]	strongly inhibited	–	enhances devimistat effects	–	oleic acid beta-oxidation (CO2 release from oleate) (AsPC1 cells [5]): block oleic acid beta-oxidation
CCN(CCO)CCCC(C)Nc1ccnc2cc(Cl)ccc12 (stereo not shown) [HCQ]	–	–	Synergy observed	significantly accelerates glycogen consumption	sensitization to devimistat-induced cell death, agent combined with devimistat (PANC1 cells [4]): Synergy observed; glycogen consumption (PANC1 cells [6]): significantly accelerates glycogen consumption
CC[C@H]1/C=C/C=C/C[C@@H](C)[C@H](O)[C@@](C)(O)C(=O)[C@@H](C)[C@H](O)[C@@H](C)C(=O)[C@@H](C)[C@H](O)[C@@H](C)/C=C/C(=O)O[C@@H]2[C@H](C)[C@H](CC1)O[C@]1(CC[C@H](C)[C@H](C[C@@H](C)O)O1)[C@H]2C [oligomycin]	–	–	–	induce accelerated glycogen depletion	–
C[C@@H](Oc1cc(-c2cnn(C3CCNCC3)c2)cnc1N)c1c(Cl)ccc(F)c1Cl [Crizotinib, (R)-3-[1-(2,6-Dichloro-3-fluorophenyl)ethoxy]-5-[1-(piperidin-4-yl)-1H-pyrazol-4-yl]pyridin-2-amine]	robust inhibition	Yes	robustly sensitize	–	sensitization to devimistat tumor cell killing in vivo (AsPC1 xenograft): sensitizes to devimistat tumor cell killing in vitro and in vivo
CNC(=O)c1c(F)cccc1Nc1nc(Nc2cc3c(cc2OC)CCN3C(=O)CN(C)C)nc2[nH]ccc12 [GSK1838705A]	little or no inhibition	No	more limited sensitization	–	Devimistat synergy (AsPC1 cells [2]): No
[H]/N=C(/N)N/C(=N/[H])NCCc1ccccc1 [phenformin]	–	–	sensitizes AsPC1 to devimistat	–	–
CN(C)C(=O)[C@H](O)[C@H](Cc1ccccc1)NC(=O)c1cc2cc(Cl)ccc2[nH]1 [CP-91149, 5-chloro-N-[(1S,2R)-3-(dimethylamino)-2-hydroxy-3-oxo-1-(phenylmethyl)propyl]-1H-indole-2-carboxamide]	–	–	Synergy observed	reduces glycogen consumption	sensitization to devimistat-induced cell death, agent combined with devimistat (PANC1 cells [4]): interacts more weakly with devimistat; glycogen consumption (PANC1 cells [6]): reduces glycogen consumption
CSc1cccc(Nc2ncc3cc(-c4c(Cl)cccc4Cl)c(=O)n(C)c3n2)c1 [PD-173955]	little or no inhibition	No	more limited sensitization	–	Devimistat synergy (AsPC1 cells [2]): No
